Results reported in patent US11975071B2, “Tumor ablation using low-intensity ultrasound and sound excitable drug” (CORNELL UNIVERSITY, priority 2018, dated 2024).
“Also recorded” adds a separate entry of the source.

How the values were obtained:
[1] = test system: MDA-MB-468 cells; assay: Cell based ROS scavenging assay; settings: then RB4 10 μM 1 h, US 1 MHz, 1 W/cm^2, 30 s, MTS one day later; for protective effect of ROS scavenger: scavenger pretreatment 30 min
Method: Ceil based ROS scavenging assay: MDA-MB-468 cells (5×10^4) were treated with free radical scavengers, L-histidine (10 mM), D-mannitol (100 mM), N-acetyl cysteine (NAC, 0.5 mM), and superoxide dismutase (SOD, 100 μg/mL) for 30 minutes. The treated cells were then incubated with fresh media containing RB4 (10 μM) for an hour. After incubation, the wells were insonated (1 MHz, 1 W/cm^2, 30 sec, 100% DC) as described above. One day later, the cell's viability was assessed using the MTS solution.

[2] = test system: MDA-MB-468 cells; assay: Sonotoxicity with RB4: microscopy and MTS viability assay at 24 hours; assay type: cell-based
Method: Sonotoxicity with RB4: MDA-MB-468 ceils (5×10^4) in 24 well plates were incubated in complete media with 10 μM RB4 for 1 hour prior to the ultrasound treatment. The plates were then placed on a pre-cut gel pad (2 cm×3 cm) with multipurpose ultrasound gel over a mounted handheld ultrasound transducer (5 cm^2) at 1 MHz, 1 W/cm^2 for 30 s, 100% DC. Cells were checked under an EVOS® FL Auto Cell Imaging system microscope. Cell viability at 24 hours was quantitated using an MTS assay. The plate was incubated at 37° C. for 4 hours. Absorbance was measured at 490 nm using a microplate reader.

[3] = test system: HT1080, fibrosarcoma; assay: Sono-sensitivity of RB4 in a second cell line; assay type: cell-based; settings: RB4 + ultrasound
[4] = test system: MDA-MB-468; assay: Toxicity of RB4 to cells (IC50); assay type: cell-based; settings: Homo sapiens, RB4 alone
[5] = test system: HT-1080; assay: Toxicity of RB4 to cells (IC50); assay type: cell-based; settings: Homo sapiens, RB4 alone
[6] = test system: MDA-MB-468 cells; assay: Mechanistic study of death process by flow cytometry (Annexin V / propidium iodide); assay type: cell-based; settings: RB4 10 μM + US 1 MHz, 1 W/cm^2, 30 s; one day after treatment
Method: Mechanistic study of death process by flow cytometry: MDA-MB-468 cells (5×10^4) were incubated in complete media with or without 10 μM RB4 for 1 hour prior to ultrasound treatment. Then the plates were insonated at 1 MHz, 1 W/cm^2, 30 sec, 100% duty cycle. Following treatment, cells were re-incubated for 1 day, 4 groups of cells (Control, RB4 alone, ultrasound alone, and RB4 combined with ultrasound) were collected and washed twice with pre-cooled PBS. Cells were stained with FITC-conjugated Annexin-Y and propidium iodide for 15 minutes as per the manufacture's instructions, and then analyzed by flow cytometry. The percentage of dead cells and those undergoing apoptosis were analyzed using flow ‘cytometry’ analysis software.

[7] = Chemical ROS assay (DCFH-DA) in solution under insonation; settings: RB4 + DCFH solution insonated with different ultrasound powers, 30 s
Method: Chemical ROS assay: To study the insonation induced ROS generation in solution, RB4 was tested using a modified 2′, 7′-dichlorofluorescin diacetate (DCFH-DA) assay. DCFH-DA (1 ml, 1 mM in MeOH) was hydrolyzed in NaOH aqueous solution (0.01N, 4 mL) at RT for 30 minutes to yield anon-fluorescent DCFH intermediate. The solution was neutralized with 20 mL of NaH2PO4 (25 mM) and shielded with aluminum foil. The final solution of DCFH was around 40 μM. RB4 (1.0 mg) was dissolved in DMSO (1 mL) and then diluted with water into a 20 μM solution. The RB4 solution (20 μM, 10 mL) was mixed with a DCFH solution (40 μM, 10 mL) as the test solution. The test solution (0.5 mL) was placed into each well of a 24-well plate. The DCFH solution without RB4 was included as a background control. The plates were treated with ultrasound (0.4-1.2 watt/cm^2) one well by one well for 30 seconds: and the insonated wells were then checked using a fluorescence plate reader, ex 485 nm/em 520 nm.

[8] = test system: MDA-MB-468 breast cancer xenograft tumor; assay: In vivo SMRT effect using preloaded tumor cells
Method: In vivo sono-membrane rupture therapy (SMRT) effect using preloaded tumor cells: MDA-MB-468 cells were suspended in PBS or RB4 (10 μM) in PBS for 1 day. The cells (5×10^6, 0.1 mL) were subcutaneously injected into both flanks. The left tumors, which were only treated with PBS, were the internal control; while the right tumors were treated with RB4 (10 μM) only, ultrasound only (1 MHz, 1 W/cm^2, 100% DC, 3 minutes), or an RB4-ultrasound combination (n=7). The transducer size was 0.75 cm^2. Tumor size was measured with slide calipers on days 7,10, 14,17,21,24, 28, and 36.

[9] = test system: MDA-MB-468 xenograft tumor; assay: In vivo SMRT effect with intra-tumoral injected RB4, histochemical analysis; design: species or system BALB/c Nu/Nu female nude mice; settings: two days after treatment
Method: (§1) In vivo SMRT effect with intra-tumoral injected RB4: MDA-MB-468 cells (10^7, 0.1 mL PBS) were subcutaneously inoculated into both flanks of BALB/c Nu/Nu female nude mice (5-6 weeks). The RB4 injections and ultrasound therapies were performed when the tumors had grown to approximately 4-5 mm in diameter, 20-22 days after inoculation. The tumors were treated with RB4 (10 μM, 50 μl) only, ultrasound only (1 MHz, 1 W cm2, 100% DC, 3 minutes), and a RB4-ultrasound combination (n=5), Under isoflurane anesthesia, RB4 was directly injected to the tumors of the mice. The ultrasound treatment was then performed immediately after the injection of RB4, with same transducer size. The same RB4-ultrasound treatment was performed on the thigh muscles of the mice. Histochemical analysis: Tumors and muscle tissue were harvested 2 days after therapy and the specimens were fixed in 10% formalin, cut in half, and embedded in paraffin. The paraffin sections (7 μm thick) were stained with hematoxylin-eosin (H&E). ImageJ 1.48 was used to measure the size of whole tumor and necrotic areas in the tumors.

[10] = test system: thigh muscle (normal muscle tissue); assay: Same RB4-ultrasound treatment on thigh muscle, histochemical analysis; assay type: in vivo, BALB/c Nu/Nu female nude mice; settings: RB4 + US 1 MHz, 1 W/cm^2, 3 min applied to thigh muscle; two days after treatment
Method: as §1

[11] = Absorption and emission spectra; assay type: physicochemical

For `OC[C@@H](O)[C@@H](O)[C@H](O)[C@H](O)CO` [D-mannitol], the “protective effect of ROS scavenger” value [1] was “none, with the exception of NAC, showed any protective effects”.
For `N[C@@H](Cc1c[nH]cn1)C(=O)O` [L-histidine], the “protective effect of ROS scavenger” value [1] was “none, with the exception of NAC, showed any protective effects”.
In the case of `CC(=O)N[C@@H](CS)C(=O)O` [NAC, N-acetyl cysteine], the “fraction of cells rescued from RB4 and ultrasound combination treatment” value ([1]; scavenger pretreatment 30 min (NAC 0.5 mM)) is reported as ~20% and the “protective effect of ROS scavenger” value [1] is reported as “able to rescue a fraction of cells”.
For `O=C(NCCO)c1c(Cl)c(Cl)c(Cl)c(Cl)c1-c1c2cc(I)c(=O)c(I)c-2oc2c(I)c(O)c(I)cc12` [RB4, 2,3,4,5-tetrachloro-6-(6-hydroxy-2,4,5,7-tetraiodo-3-oxo-3H-xanthen-9-yl)-N-(2-hydroxyethyl)-benzamide], the cells killed ([2]; RB4 10 μM 60 min + ultrasound 1 MHz, 1 W/cm^2, 30 s, viability one day later) was “over 90%”, the “cell damage in microscopic images” value ([2]; RB4 10 μM + ultrasound 1 MHz, 1 W/cm^2, 30 s) was “significant damage” and the cell viability ([2]; RB4 alone 10 μM, 60 min, no ultrasound, MTS one day later) was > 80 % viable. The “cell damage in microscopic images” value ([2]; RB4 alone 10 μM, versus untreated) was “Little difference”, the cells killed [3] was 95% and the IC50 [4] was 71 µM. It also gave an IC50 [5] of 157 µM, a PI positive cells [6] of 3% and an annexin positive cells [6] of 8%. The “annexin/PI double positive cells” value [6] was 36%, the “ROS level of RB4 solution” value [7] was “not significantly different from the background level” and the “tumor growth inhibition (in words)” value ([8]; RB4 10 μM + US 1 MHz, 1 W/cm^2, 3 min, N=7) was “significant growth arrest”. The “average tumor size relative to control untreated tumor” value ([8]; RB4 10 μM preloaded cells + US 1 MHz, 1 W/cm^2, 3 min, up to 36 days) was “about 20%”, the “tumor growth inhibition (in words)” value ([8]; RB4 alone 10 μM) was “about the same as the untreated group; also recorded: no appreciable inhibition effect” and the “growth rate ratio of treated vs. untreated tumors” value ([8]; RB4 alone (cells pre-incubated with 10 μM for 1 day), up to 36 days) was “≈ 1”. The necrotic area ([9]; RB4 50 μL, 10 μM intratumoral + US 1 MHz, 1 W/cm^2, 3 min) was ~40%, the “necrosis on HE staining (in words)” value ([9]; RB4 50 μl, 10 μM intratumoral + US 1 MHz, 1 W/cm^2, 3 min) was “A large necrotic area” and the “tissue damage on HE staining (in words)” value ([9]; RB4 alone 50 μl, 10 μM intratumoral) was “Little effect; also recorded: little tissue damage”. For the same compound, the “damage to normal muscle tissue” value [10] was “maintained their normal structures without damage; also recorded: no damaged cells were found” and the “absorption and emission (in words)” value [11] was “neither absorption nor emission above 400 nm”.
Work on `O=C1OC2(c3cc(I)c(O)c(I)c3Oc3c2cc(I)c(O)c3I)c2c(Cl)c(Cl)c(Cl)c(Cl)c21` [RB, Rose Bengal] yielded an absorption maximum [11] of 549 nm and an emission maximum [11] of 565 nm.
For superoxide dismutase, the “protective effect of ROS scavenger” value [1] was “none, with the exception of NAC, showed any protective effects”.
